Data published in EPA's ToxRefDB 2.

Assays:
rat [1] = conditions: Sub-acute repeat dose toxicity; sprague dawley; Oral; Gavage/Intubation; dose end: 4 week; group: systemic; systemic / clinical chemistry / alanine aminotransferase (alt/sgpt) / alanine aminotransferase (alt/sgpt) + systemic / clinical chemistry / …
rat [2] = conditions: Prenatal developmental toxicity study, sprague dawley, Oral, Gavage/Intubation, dose end: 17 GD, group: maternal
mouse [3] = conditions: Carcinogenicity, cd1, Oral, Water, dose end: 24 month, group: systemic
primate = conditions: Subchronic oral toxicity in nonrodent, Gavage/Intubation, dose end: 91 day, group: systemic, systemic / in life observation / clinical signs / ataxia + systemic / in life observation / clinical signs / convulsions + systemic / in …
rat [4] = conditions: Multigenerational reproductive toxicity study, wistar, Oral, Feed, dose end: 2 generation
rabbit = conditions: Prenatal developmental toxicity study, himalayan, Oral, Gavage/Intubation, dose end: 19 GD
rat [5] = conditions: Combined chronic toxicity/carcinogenicity, sprague dawley, Oral, Feed, dose end: 104 week, group: systemic
dog [6] = conditions: Chronic toxicity, beagle, Oral, Feed, dose end: 52 week, group: systemic
dog [7] = conditions: Chronic toxicity; beagle; Oral; Feed; dose end: 52 week; group: systemic; systemic / pathology microscopic / liver / hemosiderosis + systemic / pathology microscopic / spleen / hemosiderosis
rat [8] = conditions: Subchronic oral toxicity in rodents, wistar, Feed, dose end: 3 month, group: systemic, systemic / clinical chemistry / albumin / albumin + systemic / clinical chemistry / calcium / calcium + systemic / clinical chemistry / …
rat [9] = conditions: Chronic toxicity, wistar, Oral, Feed, dose end: 728 day, group: systemic
mouse [10] = conditions: Combined chronic toxicity/carcinogenicity; other; Oral; Feed; dose end: 104 week; group: systemic; systemic / in life observation / body weight / body weight
rat [11] = conditions: Developmental neurotoxicity range-finding study; wistar; Oral; Gavage/Intubation; dose end: 21 PND; group: cannot be grouped; developmental / offspring survival late / [other] / [other] + systemic / in life observation / clinical signs / tremors
rat [12] = conditions: Combined chronic toxicity/carcinogenicity; wistar; Oral; Feed; dose end: 24 month; group: systemic; systemic / in life observation / body weight / body weight + systemic / in life observation / body weight / body weight gain + systemic / in…
rat [13] = conditions: Subchronic oral toxicity in rodents, fischer, Feed, dose end: 13 week, group: systemic
rat [14] = conditions: Subchronic oral toxicity in rodents, fischer, Gavage/Intubation, dose end: 13 week, group: systemic
mouse [15] = conditions: Carcinogenicity, b6c3f1, Oral, Gavage/Intubation, dose end: 103 week, group: systemic
rat [16] = conditions: Sub-acute repeat dose toxicity; fischer; Oral; Gavage/Intubation; dose end: 28 day; group: systemic; systemic / in life observation / mortality / mortality + systemic / organ weight / kidney / absolute + systemic / organ weight / kidney / …
mouse [17] = conditions: Sub-acute repeat dose toxicity; b6c3f1; Oral; Gavage/Intubation; dose end: 16 day; group: systemic; systemic / in life observation / mortality / mortality
rat [18] = conditions: Carcinogenicity; fischer; Oral; Gavage/Intubation; dose end: 103 week; group: systemic; systemic / pathology microscopic / liver / necrosis
rat [19] = conditions: Sub-acute repeat dose toxicity, fischer, Oral, Gavage/Intubation, dose end: 16 day, group: systemic
rat [20] = conditions: Acute inhalation toxicity, fischer, Nose-Only, dose end: 28 day, group: systemic, systemic / pathology microscopic / nose / hyperplasia + systemic / pathology microscopic / nose / lesion(s) (nos) + systemic / pathology …
mouse [21] = conditions: Subchronic oral toxicity in rodents, b6c3f1, Gavage/Intubation, dose end: 13 week, group: systemic
dog [22] = conditions: Sub-acute repeat dose toxicity, beagle, Oral, Gavage/Intubation, dose end: 17 day, group: systemic
[23] = reproductive / reproductive performance / postimplantation loss / postimplantation loss + reproductive / reproductive performance / …
[24] = systemic / hematology / erythrocyte (rbc) count differential / erythrocyte (rbc) + systemic / hematology / hematocrit (hct) / hematocrit (…
[25] = group: offspring, developmental / developmental landmark / eye opening / eye opening
[26] = group: offspring, systemic / in life observation / body weight / offspring (pup) weight + systemic / in life observation / body weight / offspring (pup) …
[27] = group: parental, systemic / in life observation / body weight / body weight + systemic / in life observation / body weight / body weight gain + systemic / …
[28] = group: developmental, developmental / developmental malformation / bone / [other] + developmental / developmental malformation / bone / full supernumerary + …
[29] = group: maternal, systemic / in life observation / body weight / body weight gain + systemic / in life observation / food consumption / food consumption
[30] = systemic / in life observation / food consumption / food consumption
[31] = systemic / in life observation / food consumption / food consumption + systemic / in life observation / body weight / body weight
[32] = systemic / in life observation / clinical signs / salivation
[33] = systemic / in life observation / clinical signs / salivation + systemic / in life observation / clinical signs / [other] + systemic / in …
[34] = systemic / in life observation / body weight / body weight + systemic / in life observation / body weight / body weight gain + systemic / …
[35] = systemic / organ weight / kidney / nos + systemic / organ weight / liver / nos + systemic / pathology microscopic / liver / hypertrophy
[36] = systemic / organ weight / kidney / nos + systemic / organ weight / liver / nos + systemic / pathology microscopic / liver / hypertrophy + …
[37] = systemic / in life observation / mortality / mortality + systemic / organ weight / kidney / absolute + systemic / organ weight / kidney / …
[38] = systemic / pathology microscopic / liver / vacuolization cytoplasmic
[39] = systemic / pathology microscopic / kidney / carcinoma + systemic / pathology microscopic / stomach / hyperplasia
[40] = systemic / in life observation / clinical signs / labored respiration + systemic / in life observation / clinical signs / reduced activity…
[41] = systemic / organ weight / liver / relative to body weight
[42] = systemic / clinical chemistry / alanine aminotransferase (alt/sgpt) / alanine aminotransferase (alt/sgpt) + systemic / clinical chemistry / …

O=C(O)c1ccccc1-n1cc(C(=O)O)c(=O)c2cc(Nc3c(F)cc(F)cc3Cl)c(Cl)cc21 [AVE9423]
LEL (rat [1]): 200 mg/kg/day
LOAEL (rat [1]): 200 mg/kg/day
NEL (rat [1]): 20 mg/kg/day
NOAEL (rat [1]): 20 mg/kg/day
LOAEL (rat [2]; [23]): > 1000 mg/kg/day
NEL (rat [2]; [23]): 40 mg/kg/day
NOAEL (rat [2]; [23]): ≥ 1000 mg/kg/day
LEL (rat [2]; reproductive / reproductive performance / postimplantation loss / postimplantation loss + systemic / in life observation / body weight / …): 200 mg/kg/day

CN(C)N [1,1-Dimethylhydrazine]
LEL (mouse [3]; [24]): 1.41 mg/kg/day
NEL (mouse [3]; [24]): 0.269 mg/kg/day
LOAEL (mouse [3]; systemic / pathology microscopic / liver / hyperplasia + systemic / pathology microscopic / liver / pigmentation): 1.91 mg/kg/day
NOAEL (mouse [3]; systemic / pathology microscopic / liver / hyperplasia + systemic / pathology microscopic / liver / pigmentation + systemic / in life …): 0.97 mg/kg/day

Cl.NCC1(Cc2noc(=O)[nH]2)CCCCC1
LEL (primate): 250 mg/kg/day
LOAEL (primate): > 1500 mg/kg/day
NEL (primate): 50 mg/kg/day
NOAEL (primate): ≥ 1500 mg/kg/day

C[N+]1(C)CCCCC1.[Cl-] [Mepiquat chloride]
LEL (rat [4]; [25]): 48.6 mg/kg/day
NEL (rat [4]; [25]): < 48.6 mg/kg/day
LOAEL (rat [4]; [26]): 574 mg/kg/day
NOAEL (rat [4]; [26]): 147 mg/kg/day
LOAEL (rat [4]; group: parental, systemic / in life observation / body weight / body weight + systemic / in life observation / body weight / body weight gain): 499 mg/kg/day
LEL (rat [4]; [27]): 499 mg/kg/day
NEL (rat [4]; [27]): 153 mg/kg/day
NOAEL (rat [4]; [27]): 153 mg/kg/day
LEL (rabbit; [28]): 100 mg/kg/day
LOAEL (rabbit; [28]): 100 mg/kg/day
NEL (rabbit; [28]): 50 mg/kg/day
NOAEL (rabbit; [28]): 50 mg/kg/day
LEL (rabbit; [29]): 100 mg/kg/day
LOAEL (rabbit; [29]): 100 mg/kg/day
NEL (rabbit; [29]): 50 mg/kg/day
NOAEL (rabbit; [29]): 50 mg/kg/day
LEL (rat [5]; [30]): 186 mg/kg/day
LOAEL (rat [5]; [30]): 186 mg/kg/day
NEL (rat [5]; [31]): 62.4 mg/kg/day
NOAEL (rat [5]; [31]): 62.4 mg/kg/day
LOAEL (dog [6]; [32]): 170 mg/kg/day
NOAEL (dog [6]; [32]): < 170 mg/kg/day
LEL (dog [6]; [33]): 170 mg/kg/day
NEL (dog [6]; [33]): < 170 mg/kg/day
LEL (dog [7]): 58.4 mg/kg/day
LOAEL (dog [7]): > 58.4 mg/kg/day
NEL (dog [7]): 19.9 mg/kg/day
NOAEL (dog [7]): ≥ 58.4 mg/kg/day
LEL (rat [8]): 826 mg/kg/day
LOAEL (rat [8]): 826 mg/kg/day
NEL (rat [8]): < 826 mg/kg/day
NOAEL (rat [8]): < 826 mg/kg/day
LOAEL (rat [9]; [34]): 268 mg/kg/day
NEL (rat [9]; [34]): 13 mg/kg/day
NOAEL (rat [9]; [34]): 106 mg/kg/day
LEL (rat [9]; [30]): 106 mg/kg/day
LEL (mouse [10]): 169 mg/kg/day
LOAEL (mouse [10]): > 514 mg/kg/day
NEL (mouse [10]): 48.9 mg/kg/day
NOAEL (mouse [10]): ≥ 514 mg/kg/day
LEL (rat [11]): 75 mg/kg/day
LOAEL (rat [11]): 75 mg/kg/day
NEL (rat [11]): < 75 mg/kg/day
NOAEL (rat [11]): < 75 mg/kg/day
LEL (rat [12]): 269 mg/kg/day
LOAEL (rat [12]): 269 mg/kg/day
NEL (rat [12]): 105 mg/kg/day
NOAEL (rat [12]): 105 mg/kg/day

CC(O)CN(CC(C)O)CC(C)O.Nc1c(Cl)c(Cl)nc(C(=O)O)c1Cl (centres undefined) [Picloram triisopropanolamine salt]
LEL (rat [13]; [35]): 550 mg/kg/day
LOAEL (rat [13]; [35]): 550 mg/kg/day
NEL (rat [13]; [36]): 90 mg/kg/day
NOAEL (rat [13]; [36]): 90 mg/kg/day

O=Cc1ccco1 [Furfural]
LOAEL (rat [14]; [37]): > 180 mg/kg/day
NOAEL (rat [14]; [37]): ≥ 180 mg/kg/day
LEL (rat [14]; [38]): 11 mg/kg/day
NEL (rat [14]; [38]): < 11 mg/kg/day
LEL (mouse [15]; [39]): 50 mg/kg/day
NEL (mouse [15]; [39]): < 50 mg/kg/day
LOAEL (mouse [15]; systemic / pathology microscopic / liver / inflammation + systemic / pathology microscopic / liver / pigmentation): 100 mg/kg/day
NOAEL (mouse [15]; systemic / pathology microscopic / liver / inflammation + systemic / pathology microscopic / liver / pigmentation + systemic / pathology …): 50 mg/kg/day
LEL (rat [16]): 192 mg/kg/day
LOAEL (rat [16]): 192 mg/kg/day
NEL (rat [16]): 96 mg/kg/day
NOAEL (rat [16]): 96 mg/kg/day
LEL (mouse [17]): 400 mg/kg/day
LOAEL (mouse [17]): > 400 mg/kg/day
NEL (mouse [17]): 200 mg/kg/day
NOAEL (mouse [17]): ≥ 400 mg/kg/day
LEL (rat [18]): 30 mg/kg/day
LOAEL (rat [18]): 30 mg/kg/day
NEL (rat [18]): < 30 mg/kg/day
NOAEL (rat [18]): < 30 mg/kg/day
LOAEL (rat [19]; [40]): > 240 mg/kg/day
NEL (rat [19]; [40]): 60 mg/kg/day
NOAEL (rat [19]; [40]): ≥ 240 mg/kg/day
LEL (rat [19]; systemic / in life observation / clinical signs / reduced activity): 120 mg/kg/day
LEL (rat [20]): 6 mg/kg/day
LOAEL (rat [20]): > 368 mg/kg/day
NEL (rat [20]): < 6 mg/kg/day
NOAEL (rat [20]): ≥ 368 mg/kg/day
LEL (mouse [21]; [41]): 75 mg/kg/day
NEL (mouse [21]; [41]): < 75 mg/kg/day
LOAEL (mouse [21]; systemic / pathology microscopic / liver / inflammation + systemic / pathology microscopic / liver / necrosis): 150 mg/kg/day
NOAEL (mouse [21]; systemic / pathology microscopic / liver / inflammation + systemic / pathology microscopic / liver / necrosis + systemic / in life …): 75 mg/kg/day

CC(C)(O)c1cnn2c(-c3ccc(F)c(-c4c(F)cccc4C#N)c3)cnc2n1
LOAEL (dog [22]; [42]): > 15 mg/kg/day
NEL (dog [22]; [42]): 0.5 mg/kg/day
NOAEL (dog [22]; [42]): ≥ 15 mg/kg/day
LEL (dog [22]; systemic / clinical chemistry / albumin / albumin): 2.5 mg/kg/day
